This is an account of results in paper PMC8485799, “Synthesis and Antiprotozoal Profile of 3,4,5‐Trisubstituted Isoxazoles” (ChemistryOpen, 2021).

Series [1] has as its system promastigote forms of Leishmania amazonensis (WHOM/BR/75/JOSEFA strain). In words: Antiproliferative assay (XTT), promastigote forms, 72 h. The class given is cell-based. To be noted: for IC50: Leishmania amazonensis, 72 h, read-out: L. amazonensis IC50; for SIL-F, selectivity index (Fibroblast CC50/L. amazonensis IC50): fibroblast vs promastigote; for SIL-M, selectivity index (Macrophages CC50/L. amazonensis IC50): macrophages vs promastigote. On the procedure:
(§1) The antiproliferative activity was determined in promastigote forms of Leishmania amazonensis (WHOM/BR/75/JOSEFA strain) and epimastigote forms of Trypanosoma cruzi (Y strain). The promastigote forms of L. amazonensis were cultured in Warren medium (brain heart infusion, hemin, and folic acid; pH 7.4) supplemented with 10 % fetal bovine serum (FBS) at 25 °C. The epimastigote forms of T.cruzi were cultured in LIT medium (liver infusion tryptose; hemin, and folic acid; pH 7.4) supplemented with 10 % FBS at 28 °C. Cytotoxicity in mammalian cells was determined in fibroblast line (L929) and macrophages (J774 A1). Fibroblasts were cultured in DMEM medium (pH 7.2) supplemented with 10 % FBS at 37 °C in a 5 % CO2 atmosphere. Macrophages were cultured in RPMI‐1640 (pH 7.2) medium supplemented with 10 % FBS at 37 °C in a 5 % CO2 atmosphere.
(§2) Stock solutions of the compounds were prepared in DMSO and then diluted in the respective medium.
(§3) Promastigote forms (1×10^6 parasites.mL^−1) were cultured in 96‐well plates in the presence and absence of different concentrations of compounds diluted in Warren medium supplemented with 10 % FBS and incubated for 72 h. The epimastigote forms (1×10^6 parasites.mL^−1) were cultured in 96‐well plates in the presence and absence of different concentrations of compounds diluted in LIT medium supplemented with 10 % FBS and incubated for 96 h. After treatment, the parasites were incubated with a solution of 2,3‐bis(2‐methoxy‐4‐nitro‐5‐sulfophenyl)‐2H‐tetrazolium‐5‐carboxanilide (XTT; 0.5 mg.mL^−1) and phenazine methanesulfonate activator (PMS; 0.06 mg.mL^−1) in PBS for 4 h. Then, the absorbance was read in a microplate reader (Bio Tek‐Power Wave XS) at 450 nm.[20] The percentage of viable parasites was calculated in relation to the control in order to determine the concentration that inhibits 50 % of the protozoa (IC50). The control groups of each experiment received the same experimental conditions as the treated groups (cell concentration used, temperature, and incubation time).
(Tetrazolium assays rely on reduction of a dye to a coloured formazan, in cell work by metabolically active cells.)

Series [2] deals with epimastigote forms of Trypanosoma cruzi (Y strain). The series is described as follows: Antiproliferative assay (XTT), epimastigote forms, 96 h. It counts as cell-based. Particulars: for IC50: Trypanosoma cruzi, 96 h, read-out: T. cruzi IC50; for SIT-F, selectivity index (Fibroblast CC50/T. cruzi IC50): fibroblast vs epimastigote; for SIT-M, selectivity index (Macrophages CC50/T. cruzi IC50): macrophages vs epimastigote. As for the experimental part: as §1, §2, §3

The nature of series [3]: Cytotoxicity assay in mammalian cells (MTT), macrophages, 48 h. The class given is cell-based. To be noted: mouse, pH 7.2, 50 % inhibition of macrophages growth, 48 h, MTT. As for the experimental part: as §1, §2
(§4) Fibroblast cell (2.5×10^5 cells.mL^−1) suspensions were prepared in DMEM medium supplemented with 10 % FBS and added to 96‐well plates. Then, the plates were incubated at 37 °C in a CO2 atmosphere for 24 h to obtain confluent cell growth. After incubation, cells were treated with different concentrations of compounds diluted in DMEM for 72 h or left untreated. Macrophage (5×10^5 cells.mL^−1) suspensions were prepared in RPMI‐1640 medium supplemented with 10 % FBS and added to 96‐well plates. Then, the plates were incubated at 37 °C in a CO2 atmosphere for 24 h to obtain confluent cell growth. After incubation, cells were treated with different concentrations of compounds diluted in RPMI‐1640 for 48 h or left untreated. After treatment, the medium was removed, and cells were incubated with MTT (2 mg.mL^−1) for 4 h. Then, DMSO was added for solubilization of the formazan and analyzed with a reading microplate reader (BIO‐TEK PowerWave XS spectrophotometer) at […].[20] The percentage of viable cells was calculated in relation to the untreated control group to determine the cytotoxic concentration in 50 % of the cells (CC50). The control groups of each experiment received the same experimental conditions as the treated groups (cell concentration used, temperature, CO2, and incubation time).

Series [4] is described as follows: Cytotoxicity assay in mammalian cells (MTT), fibroblasts, 72 h. It counts as cell-based. To be noted: mouse, pH 7.2, 50 % inhibition of fibroblast growth, 72 h, MTT. As for the experimental part:
as §1, §2, §4

For orientation: melting point means the temperature of the solid-liquid transition. As a reminder, the IC50 is the concentration that inhibits the measured activity by half. Usually CC50 stands for the concentration that lowers cell viability or growth by half. Low readings indicate harm at low concentration, high ones better tolerance by the cells.

SMILES strings stand for the structures. Read-outs that look alike come from different tables or passages of the source.

`NNC(=O)c1noc(-c2ccc([N+](=O)[O-])cc2)c1CNc1ccccc1` [3 aa, 3‐Carbohydrazide‐4‐(phenyl)aminomethyl‐5‐(4‐nitrophenyl)isoxazole]: the melting point is 189 to 190.4 °C. Further, the IC50 in series [1] (promastigote form, XTT) was 42.1 ± 1.3 µM. In series [1], the “SIL-F, selectivity index (Fibroblast CC50/L. amazonensis IC50)” value (“SIL-F, selectivity index” for short) came to 4.71 and the “SIL-M, selectivity index (Macrophages CC50/L. amazonensis IC50)” value (“SIL-M, selectivity index” below) worked out at 3.39. Besides, the IC50 in series [2] (epimastigote form, XTT) amounted to 39.8 ± 3.6 µM. In series [2], the “SIT-F, selectivity index (Fibroblast CC50/T. cruzi IC50)” value (from here on “SIT-F, selectivity index”) came out at 4.98 and the “SIT-M, selectivity index (Macrophages CC50/T. cruzi IC50)” value (“SIT-M, selectivity index” for short) was 3.59. It took 142.8 ± 0.8 µM to reach half-maximal cytotoxicity in series [3] (J774 A1 macrophages) (CC50 at 48 h). The CC50 at 72 h in series [4] (L929 fibroblast cells) came out at 198 ± 9.5 µM.
`NNC(=O)c1noc(-c2ccc([N+](=O)[O-])cc2)c1CNc1ccc(Cl)cc1` [3 ab] had a melting point of 174.1 to 176.8 °C. Besides, the IC50 in series [1] (promastigote form, XTT) was 15.7 ± 0.4 µM. Also, in series [1], the “SIL-F, selectivity index” value is given as 6.26 and the “SIL-M, selectivity index” value was determined as 5.84. In addition, the IC50 in series [2] (epimastigote form, XTT) worked out at 12.1 ± 0.9 µM. In series [2], the “SIT-F, selectivity index” value is given as 8.12 and the “SIT-M, selectivity index” value is 7.58. In series [3] (J774 A1 macrophages), this compound returned a CC50 at 48 h of 91.7 ± 3.8 µM. This compound showed a CC50 at 72 h in series [4] (L929 fibroblast cells) of 98.3 ± 4.1 µM.
The compound `COc1ccc(NCc2c(C(=O)NN)noc2-c2ccc([N+](=O)[O-])cc2)cc1` [3 ac] gave a melting point of 144.2 to 146.8 °C. Further, in series [1] (promastigote form, XTT), the IC50 came out at 76.7 ± 0.6 µM. Further, in series [1], the “SIL-F, selectivity index” value is recorded as 6.51 and the “SIL-M, selectivity index” value came to 5.25. The IC50 in series [2] (epimastigote form, XTT) was determined as 82.9 ± 3.4 µM. Further, in series [2], the “SIT-F, selectivity index” value stood at 6.02 and the “SIT-M, selectivity index” value was found to be 4.86. The same compound returned a CC50 at 48 h in series [3] (J774 A1 macrophages) of 403 ± 11.5 µM. The compound further displayed a CC50 at 72 h in series [4] (L929 fibroblast cells) of 499 ± 2.7 µM.
Compound `NNC(=O)c1noc(-c2ccccc2)c1CNc1ccccc1` [3 ba] yielded a melting point of 151.3 to 152.4 °C. Moreover, in series [1] (promastigote form, XTT), the IC50 was determined as 34.9 ± 2.9 µM. For the same compound, in series [1], the “SIL-F, selectivity index” value came out at 5.41 and the “SIL-M, selectivity index” value is reported as 3.16. Also, the IC50 in series [2] (epimastigote form, XTT) stood at 39.5 ± 5.6 µM. In series [2], the “SIT-F, selectivity index” value was found to be 4.78 and the “SIT-M, selectivity index” value is given as 2.79. The CC50 at 48 h in series [3] (J774 A1 macrophages) amounted to 110 ± 5.6 µM. The compound further yielded a CC50 at 72 h in series [4] (L929 fibroblast cells) of 189 ± 9 µM.
`NNC(=O)c1noc(-c2ccccc2)c1CNc1ccc(Cl)cc1` [3 bb] gave a melting point of 190.6 to 191.6 °C. Besides, in series [1], the IC50 was determined as 35.7 ± 6 µM; the “SIL-F, selectivity index” value is 8.07; the “SIL-M, selectivity index” value was determined as 6.48. In addition, in series [2], the IC50 stood at 39 ± 7.1 µM; the “SIT-F, selectivity index” value was 7.38; the “SIT-M, selectivity index” value is 5.93. The compound further registered a cytotoxic concentration (CC50) at 48 h in series [3] of 231 ± 8.1 µM. In series [4], this compound came in with a CC50 at 72 h of 288 ± 9.9 µM.
For `COc1ccc(NCc2c(C(=O)NN)noc2-c2ccccc2)cc1` [3 bc], the melting point is 132.2 to 135.4 °C. In addition, the IC50 in series [1] (promastigote form, XTT) stood at 12.4 ± 1.7 µM. In addition, in series [1], the “SIL-F, selectivity index” value is 15.35 and the “SIL-M, selectivity index” value is 14.97. The “Selectivity index (SI), overall” value in series [1] (span over both cell lines (fibroblast, macrophages) and both parasites (L. amazonensis, T. cruzi)) is given as “greater than 14”. The IC50 in series [2] (epimastigote form, XTT) amounted to 15 ± 0.8 µM. In series [2], the “SIT-F, selectivity index” value is 12.69 and the “SIT-M, selectivity index” value turned out to be 12.38. Moreover, it took 186 ± 6.1 µM to reach half-maximal cytotoxicity in series [3] (J774 A1 macrophages) (CC50 at 48 h). It took 190 ± 3.7 µM to reach half-maximal cytotoxicity in series [4] (L929 fibroblast cells) (CC50 at 72 h).
For `NNC(=O)c1noc(-c2ccc(F)cc2)c1CNc1ccccc1` [3 ca], the melting point fell in the range of 174 to 175 °C. For the same compound, in series [1] (promastigote form, XTT), the IC50 is 20.3 ± 0.9 µM. Further, in series [1], the “SIL-M, selectivity index” value is recorded as 8.57. In addition, in series [2] (epimastigote form, XTT), the IC50 is 22.8 ± 1.7 µM. Moreover, in series [2], the “SIT-F, selectivity index” value was 10.25 and the “SIT-M, selectivity index” value is given as 7.63. The compound also came in with a CC50 at 48 h in series [3] (J774 A1 macrophages) of 174 ± 8.1 µM. This compound also yielded a CC50 at 72 h in series [4] (L929 fibroblast cells) of 198 ± 5 µM.
